According to paper PMC10077203, “Structure modification, antialgal, antiplasmodial, and toxic evaluations of a series of new marine-derived 14-membered resorcylic acid lactone derivatives” (Marine Life Science & Technology, 2021):
“And” between values parts separate entries of the source, which are not always exact repeats. Equal values may be shown once. Read-outs that look alike come from different tables or passages of the source.

Legend:
[1] = tested on: chloroquine sensitive HB3 strain of P. falciparum; test: In vitro antiplasmodial assay (Pico-Green growth inhibition); type: cell-based, Plasmodium falciparum; conditions: for IC50: Plasmodium falciparum; for antiplasmodial activity against P. falciparum (in words): structure-activity discussion; for P. falciparum SI, Selectivity Index (CC50/IC50): CC50 HUVEC / IC50 P. falciparum
Description: In vitro antiplasmodial activity was performed by culturing human erythrocytes and infecting them with P. falciparum, as reported by Trager and Jensen ([1976]). Briefly, the chloroquine sensitive HB3 strain of P. falciparum-infected O + erythrocytes was cultured in RPMI 1640 medium supplemented with 10% human serum (from O + blood) at a hematocrit of 2% erythrocytes at 37 °C with a gas mixture containing 90% N2, 5% CO2, and 5% O2. Parasites were synchronized with 5% D-sorbitol (Lambros and Vanderberg [1979]). P. falciparum growth inhibition bioassays were performed with the procedure as described by Corbett et al. ([2004]), which used Pico-Green, a double stranded-DNA fluorescent dye to test the effect of compounds.

P. tricornutum Bohlin = test: Diatom growth inhibition assay (antialgal activity); type: cell-based, Phaeodactylum tricornutum Bohlin; conditions: 48 h, read-out: EC50 P. tricornutum
Description: (§1) The antialgal activity against the microalgae P. tricornutum Bohlin, C. vulgaris, C. socialis, N. laevissima, and N. exigua was evaluated by the method of Ortlepp et al. ([2008]). Briefly, the microalgae were grown in sterilized BG11 medium under light intensity of 2500 lx and 12 h: 12 h light: dark cycle at temperature of 20 ℃. The microalgae were grown to reach the logarithmic phase (approximately 5 × 10^5 cells/ml), which were used for microalgae growth inhibition assay. The compounds 1–71 were first dissolved in a small amount of DMSO and then diluted with 0.22 μm of filtered seawater (FSW) to achieve a range of concentrations from 0.625 to 50 μg/ml. Ten microliters of the compound solution was added to multiwell Petri dishes containing a 1-mL suspension of the microalgae (approximately 12 × 10^4 cells/ml). FSW with DMSO was used as a negative control, and solutions of SeaNine 211 in seawater were used as positive controls. After the plates were incubated for 48 h (16 ± 1 ℃) under continuous light, the FSW with non-attached microalgae was removed. The amount of chlorophyll a in attached microalgae was determined with a spectrophotometer (Beckman, model DU650, USA). Then the EC50 (inhibits 50% of settlement of cyprids in comparison with the control) was calculated using the Probit software program.

C. socialis = test: as above; type: cell-based, Chaetoceros socialis; conditions: 48 h, read-out: EC50 C. socialis
Description: as §1

N. laevissima = test: as above; type: cell-based, Navicula laevissima; conditions: 48 h, read-out: EC50 N. laevissima
Description: as §1

N. exigua = test: as above; type: cell-based, Navicula exigua
Description: as §1

C. vulgaris = test: as above; type: cell-based, Chlorella vulgaris; conditions: 48 h, read-out: EC50 C. vulgaris
Description: as §1

[2] = tested on: P. tricornutum Bohlin, C. vulgaris, C. socialis, N. laevissima, and N. exigua; test: Diatom growth inhibition assay, whole panel; type: cell-based; conditions: Chlorella vulgaris; selective and moderate activities; read-out: EC50 antialgal, range over compounds and algae
Description: as §1

[3] = In vitro cytotoxicity (CC50); type: cell-based; conditions: human, HUVEC cells
From the text: Toxicity is a major concern of drug discovery and development, and the selectivity index (SI) is used as the evaluation parameter of drug potential of the test samples by comparing the toxicity on a human cell line (CC50) and the selective inhibitory effect on P. falciparum (IC50) calculated here as CC50/IC50. We decided to evaluate in vitro cytotoxicity of the active derivatives 38, 39, 50, 52, 65, 67, 70, and 71 by determining their 50% cytotoxic concentrations. The results are presented in Table 3, presenting only those CC50 values > 100 μmol/L, reaching selectivity indexes > 10. The cytotoxic concentration at 150 μmol/L was not be determined because of a lack of solubility of the tested molecule in the culture medium. Moreover, the toxicity of these derivatives was also evaluated against two other cell lines: hepatocellular liver carcinoma cell line (Hep G2) and cervical carcinoma (HeLa), finding CC50 values > 100 μmol/L.

[4] = Phaeodactylum tricornutum, chlorophyll a of attached microalgae
[5] = Chaetoceros socialis, chlorophyll a of attached microalgae
[6] = Sellaphora laevissima, chlorophyll a of attached microalgae
[7] = 48 h, chlorophyll a of attached microalgae, read-out: EC50 N. exigua
[8] = Chlorella vulgaris, chlorophyll a of attached microalgae
[9] = chlorophyll a of attached microalgae
[10] = Erythrocyte, HB3 strain in human erythrocytes, read-out: P. falciparum IC50
[11] = 48 h, chlorophyll a of attached microalgae; read-out: EC50 N. exigua

CCN(CC)CCCC(C)Nc1ccnc2cc(Cl)ccc12 (stereo not drawn) [Chloroquine, reference compound]
IC50 ([1]; HB3, Erythrocyte, read-out: P. falciparum IC50): 37.9 µM
IC50 ([1]; HB3, read-out: P. falciparum IC50 (positive control, methods)): 0.0329 µM

COc1cc(O)c2c(c1)/C=C/C[C@H](O)[C@H](O)[C@@H](O)/C=C/C[C@H](C)OC2=O [Compound 1, zeaenol]
EC50 (P. tricornutum Bohlin; Phaeodactylum tricornutum): 12.6 µM
EC50 (C. socialis; Chaetoceros socialis): 25.4 µM
EC50 (N. laevissima; Sellaphora laevissima): 8.79 µM
EC50 (N. exigua; 48 h, read-out: EC50 N. exigua): 23.9 µM
EC50 (C. vulgaris; Chlorella vulgaris): > 10 µM

COc1cc(OC(=O)C(C)(C)C)c2c(c1Cl)C=CCC(O)C(O)C(O)C=CCC(C)OC2=O (stereo not drawn) [Compound 3]
EC50 (P. tricornutum Bohlin; [4]): 22.3 µM
EC50 (C. socialis; [5]): > 10 µM
EC50 (N. laevissima; [6]): > 10 µM
EC50 (N. exigua; [7]): > 10 µM
EC50 (C. vulgaris; [8]): 30.9 µM
EC50 [2]: 11 to 32.5 µM

COc1cc2c(c(OCc3ccccc3)c1)C(=O)OC(C)CC=CC(O)C(O)C(O)CC=C2 (stereo not drawn) [Compound 4]
EC50 (P. tricornutum Bohlin; [4]): 21 µM
EC50 (C. socialis; [5]): > 10 µM
EC50 (N. laevissima; [6]): 13.6 µM
EC50 (N. exigua; [7]): 11 µM
EC50 (C. vulgaris; [8]): > 10 µM
EC50 [2]: 11 to 32.5 µM

COc1cc2c(c(OCc3ccccc3Br)c1)C(=O)OC(C)CC=CC(O)C(O)C(O)CC=C2 (stereo not drawn) [Compound 9]
EC50 (P. tricornutum Bohlin; [9]): 6.99 µM
EC50 (P. tricornutum Bohlin; [4]): < 10 µM
EC50 (C. socialis; [9]): 9 µM
EC50 (C. socialis; [5]): < 10 µM
EC50 (N. laevissima; [9]): 6.67 µM
EC50 (N. laevissima; [6]): < 10 µM
EC50 (N. exigua; [7]): 19.2 µM
EC50 (C. vulgaris; [8]): > 10 µM

COc1cc(COc2cc(OC)cc3c2C(=O)OC(C)CC=CC(O)C(O)C(O)CC=C3)cc(OC)c1 (stereo not drawn) [Compound 12]
EC50 (P. tricornutum Bohlin; [4]): 32.5 µM
EC50 (C. socialis; [5]): > 10 µM
EC50 (N. laevissima; [6]): 20 µM
EC50 (N. exigua; [7]): > 10 µM
EC50 (C. vulgaris; [8]): > 10 µM
EC50 [2]: 11 to 32.5 µM

COc1cc(COc2cc(OC)c(Cl)c3c2C(=O)OC(C)CC=CC(O)C(O)C(O)CC=C3)cc(OC)c1 (stereo not drawn) [Compound 13]
EC50 (P. tricornutum Bohlin; [4]): 14 µM
EC50 (C. socialis; [5]): 24 µM
EC50 (N. laevissima; [6]): 16.9 µM
EC50 (N. exigua; [7]): > 10 µM
EC50 (C. vulgaris; [8]): > 10 µM
IC50 [1, 10]: 12.6 µM
antiplasmodial activity against P. falciparum (in words) [1]: active
EC50 [2]: 11 to 32.5 µM

COc1cc2c(c(OCc3cc(F)cc(F)c3)c1)C(=O)OC(C)CC=CC(O)C(O)C(O)CC=C2 (stereo not drawn) [Compound 15]
EC50 (P. tricornutum Bohlin; [4]): 33.1 µM
EC50 (C. socialis; [5]): 15 µM
EC50 (N. laevissima; [6]): > 10 µM
EC50 (N. exigua; [7]): 18.8 µM
EC50 (C. vulgaris; [8]): > 10 µM
EC50 [2]: 11 to 32.5 µM

COc1cc2c(c(OCc3ccc(Br)cc3F)c1)C(=O)OC(C)CC=CC(O)C(O)C(O)CC=C2 (stereo not drawn) [Compound 24]
EC50 (P. tricornutum Bohlin; [4]): 11.2 µM
EC50 (C. socialis; [5]): > 10 µM
EC50 (N. laevissima; [6]): 22.4 µM
EC50 (N. exigua; [7]): 10.2 µM
EC50 (C. vulgaris; [8]): > 10 µM
EC50 [2]: 11 to 32.5 µM

CCC(=O)Oc1cc(OC)cc2c1C(=O)OC(C)CC=CC1OC(C)(C)OC1C(O)CC=C2 (stereo not drawn) [Compound 30]
IC50 [1, 10]: 12.4 µM
antiplasmodial activity against P. falciparum (in words) [1]: moderate activity

COCC(=O)Oc1cc(OC)cc2c1C(=O)O[C@@H](C)C/C=C/[C@H](O)[C@@H](O)[C@@H](O)C/C=C/2 [Compound 34]
EC50 (P. tricornutum Bohlin; [4]): 16.2 µM
EC50 (C. socialis; [5]): > 10 µM
EC50 (N. laevissima; [9]): 8.76 µM
EC50 (N. laevissima; [6]): 8.55 µM
EC50 (N. exigua; [7]): 8.76 µM
EC50 (N. exigua; [11]): 8.55 µM
EC50 (C. vulgaris; [8]): 12.1 µM
antiplasmodial activity against P. falciparum (in words) [1]: moderate activity

COCC(=O)Oc1cc(OC)c(Cl)c2c1C(=O)OC(C)CC=CC1OC(C)(C)OC1C(OC(=O)COC)CC=C2 (stereo not drawn) [Compound 35]
IC50 [1, 10]: 11.6 µM

COc1cc2c(c(OCc3ccc(C(F)(F)F)cc3)c1)C(=O)OC(C)CC=CC1OC(C)(C)OC1C(O)CC=C2 (stereo not drawn) [Compound 45]
EC50 (P. tricornutum Bohlin; [4]): > 10 µM
EC50 (C. socialis; [5]): > 10 µM
EC50 (N. laevissima; [6]): 27.4 µM
EC50 (N. exigua; [7]): 18.3 µM
EC50 (C. vulgaris; [8]): 13 µM
EC50 [2]: 11 to 32.5 µM

COc1cc(COc2cc(OC)c(Cl)c3c2C(=O)OC(C)CC=CC2OC(C)(C)OC2C(O)CC=C3)cc(OC)c1 (stereo not drawn) [Compound 50]
P. falciparum SI, Selectivity Index (CC50/IC50) [1]: > 12
IC50 [1, 10]: 7.82 µM
antiplasmodial activity against P. falciparum (in words) [1]: active
CC50 [3]: > 100 µM

COC(=O)c1ccc(COc2cc(OC)c(Cl)c3c2C(=O)OC(C)CC=CC2OC(C)(C)OC2C(O)CC=C3)cc1 (stereo not drawn) [Compound 52]
P. falciparum SI, Selectivity Index (CC50/IC50) [1]: > 10
IC50 [1, 10]: 9.72 µM
CC50 [3]: > 100 µM

[2H]C([2H])([2H])C1(C([2H])([2H])[2H])OC2C=CCC(C)OC(=O)c3c(cc(OC)cc3OCc3ccccc3Br)C=CCC(O)C2O1 (stereo not drawn) [Compound 58]
EC50 (P. tricornutum Bohlin; [4]): 28.2 µM
EC50 (C. socialis; [5]): > 10 µM
EC50 (N. laevissima; [6]): > 10 µM
EC50 (N. exigua; [7]): 20.1 µM
EC50 (C. vulgaris; [8]): 15.9 µM
EC50 [2]: 11 to 32.5 µM

[2H]C([2H])([2H])C1(C([2H])([2H])[2H])OC2C=CCC(C)OC(=O)c3c(cc(OC)cc3OCc3cccc(F)c3)C=CCC(O)C2O1 (stereo not drawn) [Compound 60]
antiplasmodial activity against P. falciparum (in words) [1]: active

[2H]C([2H])([2H])C1(C([2H])([2H])[2H])OC2C=CCC(C)OC(=O)c3c(cc(OC)cc3OCc3cccc(C)c3)C=CCC(O)C2O1 (stereo not drawn) [Compound 62]
EC50 (P. tricornutum Bohlin; [4]): > 10 µM
EC50 (C. socialis; [5]): 25.8 µM
EC50 (N. laevissima; [6]): > 10 µM
EC50 (N. exigua; [7]): 14.2 µM
EC50 (C. vulgaris; [8]): 16.3 µM
EC50 [2]: 11 to 32.5 µM

[2H]C([2H])([2H])C1(C([2H])([2H])[2H])OC2C=CCC(C)OC(=O)c3c(cc(OC)cc3OCc3ccc(-c4ccccc4C#N)cc3)C=CCC(O)C2O1 (stereo not drawn) [Compound 65]
P. falciparum SI, Selectivity Index (CC50/IC50) [1]: > 12
IC50 [1, 10]: 7.82 µM
CC50 [3]: > 100 µM

CCC(=O)Oc1cc(OC)cc2c1C(=O)OC(C)CC=CC(OC(=O)CC)C(OC(=O)CC)C(OC(=O)CC)CC=C2 (stereo not drawn) [Compound 69]
IC50 [1, 10]: 9.18 µM

CCCCCCCCn1sc(Cl)c(Cl)c1=O [SeaNine 211, reference compound]
EC50 (P. tricornutum Bohlin; [9]): 0.74 µM
EC50 (C. socialis; [9]): 1.87 µM
EC50 (N. laevissima; [9]): 2.9 µM
EC50 (N. exigua; [11]): 9.74 µM and 9.47 µM
EC50 (C. vulgaris; [9]): 6.52 µM
